Results as given in PubChem BioAssay (NCI).
“And” between values parts separate entries of the source, which are not always exact repeats. Equal values may be shown once.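 Protocol summary: plate cells (96-well), add compound at 5 concentrations, incubate 48 h, interpolate endpoints linearly. GI50 is the concentration that inhibits growth by half. At the TGI there is no net growth.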

What follows are compounds tested on A549 NSCLC (assay: NCI-60 cell line screen, 48 h).

| SMILES | TGI [µM] | GI50 |
| --- | --- | --- |
| COc1ccccc1/C=C/c1cnccn1 | > 10 | – |
| Nc1nc(Nc2ccccc2)c2ncn(Cc3cc4c(cc3Br)OCO4)c2n1 | 11.5 | 0.0491 µM |
| O=C(Nc1cccc(Cl)c1)c1cc2ccccc2cc1O | > 100 | 3.63 µM and 3.31 µM |
| Nc1c(C(=O)N/N=C/c2ccc(-c3ccc(Cl)cc3)o2)cnn1-c1ccnc2c(C(F)(F)F)cccc12 | > 100 | 83.9 µM |
| CCCCCc1c(C)[nH]c(/C=C2\N=C(c3ccc[nH]3)C=C2CC)c1C | 0.0846 | < 0.0125 µM |
| CC(=O)Oc1ccccc1C(=O)N=C1[Se]CCN1C(=O)c1ccccc1OC(C)=O | 2.64 | 0.832 µM |
| CC(C)c1ccccc1S(=O)c1ccccc1C(C)(C)O (configuration not stated) | > 100 | – |
| CC(C)(C)C(=O)/C=C/c1ccc(Oc2ccccc2)cc1 | 94.3 | – |
| CCOC(=O)[C@H](CCCNC(=O)OC(C)(C)C)NCc1ccc(OC)c(OC)c1 | > 100 | – |
| COC(COC(=O)N1CCN(C=O)CC1)C1=C(N2CC2)C(=O)C(C)=C(N2CC2)C1=O (configuration not stated) | 2.71 | – |
| O=C(/C=C/c1c(O)ccc2ccccc12)c1ccc2ccccc2c1 | > 100 | – |
| N#CC(C#N)=c1[nH]c2cccc3c2-c2c(cccc2c3=C(C#N)C#N)[nH]1 | > 100 | – |
| CSC1(CC(=O)N(C)C)C(=O)Nc2ccccc21 (configuration not stated) | > 100 | – |
| CC(=O)OCC1OC([S-])C(OC(C)=O)C(OC(C)=O)C1OC(C)=O.CC[PH+](CC)CC.CC[PH+](CC)CC.[Au].[Au] (configuration not stated) | 4 | 1.72 µM |
| Cc1cc(C)n(CCNCCn2nc(C)cc2C)n1 | > 100 | – |
| COc1cc2c(cc1OCc1ccccc1)CNCC2 | > 100 | – |
| O=C(CN1CCCCC1)N1CCc2c([nH]c3ccccc23)C1c1cccnc1 (configuration not stated) | > 100 | – |

| SMILES | TGI [µM] | GI50 |
| --- | --- | --- |
| O=C(O)c1cc(O)c2c(c1)C(C1c3cc(C(=O)O)cc(O)c3C(=O)c3c(OC4OC(CO)C(O)C(O)C4O)cccc31)c1cccc(OC3OC(CO)C(O)C(O)C3O)c1C2=O (configuration not stated) | > 100 | > 100 µM |
| O/N=C\c1c(O)ccc2ccccc12 | > 100 | – |
| COc1cc2cn3c4ccc(O)cc4[nH]c(=O)c3c2cc1OC | 1.3 | 0.042 µM |
| Cc1n(Cc2ccc3ccccc3c2)cc[n+]1Cc1ccc2ccccc2c1 | 21.3 | 3.81 µM |
| Cc1c(C2Nc3ccccc3C2C)[nH]c2ccccc12 (configuration not stated) | 24.1 | 1.67 µM |
| O=C(CCC(=O)Nc1cccc(Cl)c1)CC(=O)c1ccc(Cl)cc1 | > 100 | – |
| O=C(CCCN1CC=C(n2c(=O)[nH]c3ccccc32)CC1)c1ccc(F)cc1 | > 100 | 70.2 µM |
| CC(=O)Oc1ccccc1C(=O)N=C1[Se]CCCN1C(=O)c1ccccc1OC(C)=O | 3.69 | 1.85 µM |
| COc1ccc(C2C(C#N)=C(N)OC3=C2COc2ccc(F)cc23)cc1OC (configuration not stated) | 63.8 | 27.2 µM |
| CCCS(=O)(=O)Nc1ccc(Nc2c3ccccc3nc3ccccc23)c(OC)c1 | 5.99 | – |
| CCN(CC)CC(C)(C)C(=O)/C=C/c1ccc(Cl)c(Cl)c1 | 4.88 | 2.38 µM |
| CN(C)Cc1c[nH]c2c1C(=O)c1c(c(O)c3ccccc3c1O)C2=O | 20.6 | 7.59 µM |
| O=C(CSc1nnc(-c2ccccc2NC(=O)C(F)(F)F)c(=O)[nH]1)NC(=O)Nc1ccccc1 | > 100 | – |
| N#CC1Nc2ccccc2[C@@H](O)C1O (some centres not stated) | > 100 | – |
| O=C1c2ccn(CCCCNC(CO)(CO)CO)c2C(=O)c2c1c(O)c1ccccc1c2O | 3.96 | 1.86 µM |
| CCOC(=O)c1[nH]c(COC(C)=O)c(CCCOC(C)=O)c1CCCOC(C)=O | > 100 | – |
| COc1ccc(-c2cc(-c3cccn3C)c(C#N)c(N)n2)cc1OC | > 100 | > 100 µM |

These compounds were tested on HT29 colon (assay: NCI-60 cell line screen, 48 h).

| SMILES | TGI [µM] | GI50 |
| --- | --- | --- |
| COc1ccccc1/C=C/c1cnccn1 | > 10 | – |
| Nc1nc(Nc2ccccc2)c2ncn(Cc3cc4c(cc3Br)OCO4)c2n1 | 0.706 | 0.0484 µM |
| O=C(Nc1cccc(Cl)c1)c1cc2ccccc2cc1O | > 100 | 45.8 µM and 29.1 µM |
| Nc1c(C(=O)N/N=C/c2ccc(-c3ccc(Cl)cc3)o2)cnn1-c1ccnc2c(C(F)(F)F)cccc12 | > 100 | 77.4 µM |
| CCCCCc1c(C)[nH]c(/C=C2\N=C(c3ccc[nH]3)C=C2CC)c1C | 0.131 | < 0.01 µM |
| CC(=O)Oc1ccccc1C(=O)N=C1[Se]CCN1C(=O)c1ccccc1OC(C)=O | 4.46 | 0.637 µM |
| CC(C)c1ccccc1S(=O)c1ccccc1C(C)(C)O (configuration not stated) | > 100 | – |
| CC(C)(C)C(=O)/C=C/c1ccc(Oc2ccccc2)cc1 | 25 | – |
| CCOC(=O)[C@H](CCCNC(=O)OC(C)(C)C)NCc1ccc(OC)c(OC)c1 | > 100 | – |
| COC(COC(=O)N1CCN(C=O)CC1)C1=C(N2CC2)C(=O)C(C)=C(N2CC2)C1=O (configuration not stated) | 0.999 | – |
| O=C(/C=C/c1c(O)ccc2ccccc12)c1ccc2ccccc2c1 | > 100 | – |
| N#CC(C#N)=c1[nH]c2cccc3c2-c2c(cccc2c3=C(C#N)C#N)[nH]1 | > 100 | – |
| CSC1(CC(=O)N(C)C)C(=O)Nc2ccccc21 (configuration not stated) | > 100 | – |
| CC(=O)OCC1OC([S-])C(OC(C)=O)C(OC(C)=O)C1OC(C)=O.CC[PH+](CC)CC.CC[PH+](CC)CC.[Au].[Au] (configuration not stated) | 0.989 | 0.319 µM |
| COc1cc2c(cc1OCc1ccccc1)CNCC2 | > 100 | – |
| O=C(CN1CCCCC1)N1CCc2c([nH]c3ccccc23)C1c1cccnc1 (configuration not stated) | > 100 | – |

| SMILES | TGI [µM] | GI50 |
| --- | --- | --- |
| O=C(O)c1cc(O)c2c(c1)C(C1c3cc(C(=O)O)cc(O)c3C(=O)c3c(OC4OC(CO)C(O)C(O)C4O)cccc31)c1cccc(OC3OC(CO)C(O)C(O)C3O)c1C2=O (configuration not stated) | > 100 | > 100 µM |
| O/N=C\c1c(O)ccc2ccccc12 | > 100 | – |
| COc1cc2cn3c4ccc(O)cc4[nH]c(=O)c3c2cc1OC | 0.469 | 0.025 µM |
| Cc1n(Cc2ccc3ccccc3c2)cc[n+]1Cc1ccc2ccccc2c1 | 3.02 | 0.521 µM |
| Cc1c(C2Nc3ccccc3C2C)[nH]c2ccccc12 (configuration not stated) | 23.1 | 4.48 µM |
| O=C(CCC(=O)Nc1cccc(Cl)c1)CC(=O)c1ccc(Cl)cc1 | > 100 | – |
| O=C(CCCN1CC=C(n2c(=O)[nH]c3ccccc32)CC1)c1ccc(F)cc1 | > 100 | 27.6 µM |
| CC(=O)Oc1ccccc1C(=O)N=C1[Se]CCCN1C(=O)c1ccccc1OC(C)=O | 8.73 | 3.15 µM |
| CCCS(=O)(=O)Nc1ccc(Nc2c3ccccc3nc3ccccc23)c(OC)c1 | 7.16 | – |
| CN(C)Cc1c[nH]c2c1C(=O)c1c(c(O)c3ccccc3c1O)C2=O | > 100 | 16.7 µM |
| O=C(CSc1nnc(-c2ccccc2NC(=O)C(F)(F)F)c(=O)[nH]1)NC(=O)Nc1ccccc1 | > 100 | – |
| N#CC1Nc2ccccc2[C@@H](O)C1O (some centres not stated) | > 100 | – |
| O=C1c2ccn(CCCCNC(CO)(CO)CO)c2C(=O)c2c1c(O)c1ccccc1c2O | 4.37 | 1.83 µM |
| CCOC(=O)c1[nH]c(COC(C)=O)c(CCCOC(C)=O)c1CCCOC(C)=O | > 100 | – |
| COc1ccc(-c2cc(-c3cccn3C)c(C#N)c(N)n2)cc1OC | > 100 | > 100 µM |

The compounds below were run on M14 melanoma (assay: NCI-60 cell line screen, 48 h).

| SMILES | TGI [µM] | GI50 |
| --- | --- | --- |
| COc1ccccc1/C=C/c1cnccn1 | > 10 | – |
| O=C(Nc1cccc(Cl)c1)c1cc2ccccc2cc1O | > 100 | 3.67 µM and 2.24 µM |
| Nc1c(C(=O)N/N=C/c2ccc(-c3ccc(Cl)cc3)o2)cnn1-c1ccnc2c(C(F)(F)F)cccc12 | > 100 | > 100 µM |
| CCCCCc1c(C)[nH]c(/C=C2\N=C(c3ccc[nH]3)C=C2CC)c1C | 0.0237 | < 0.01 µM |
| CC(=O)Oc1ccccc1C(=O)N=C1[Se]CCN1C(=O)c1ccccc1OC(C)=O | 2.2 | 0.523 µM |
| CC(C)c1ccccc1S(=O)c1ccccc1C(C)(C)O (configuration not stated) | > 100 | – |
| CC(C)(C)C(=O)/C=C/c1ccc(Oc2ccccc2)cc1 | 34.5 | – |
| CCOC(=O)[C@H](CCCNC(=O)OC(C)(C)C)NCc1ccc(OC)c(OC)c1 | > 100 | – |
| COC(COC(=O)N1CCN(C=O)CC1)C1=C(N2CC2)C(=O)C(C)=C(N2CC2)C1=O (configuration not stated) | 1.34 | – |
| N#CC(C#N)=c1[nH]c2cccc3c2-c2c(cccc2c3=C(C#N)C#N)[nH]1 | > 100 | – |
| CSC1(CC(=O)N(C)C)C(=O)Nc2ccccc21 (configuration not stated) | > 100 | – |
